Source: patent publication US20240335395A1, “COMPOSITIONS AND METHODS FOR PREVENTING AND/OR TREATING DISEASE ASSOCIATED WITH IL-23 EXPRESSION” (ALLSPIM, priority 2021, published 2024)

Tests used:
[1] = test system: TNF-alpha; experiment: MSU-induced TNF-alpha in knee joint tissue (multiplex microassay); type: in vivo, mouse; conditions: 2,4-D 100 mg/kg, CLC 1 mg/kg, DEX 0.5 mg/kg
Protocol: (§1) Mice (six per group) were treated with 2,4-D (100 mg/kg or 20 mg/kg, i.p.), CLC (1 mg/kg or 0.2 mg/kg, i.p.), DEX (0.5 mg/kg or 0.1 mg/kg, i.p.), or vehicle (20% polyoxyethylenesorbitan monooleate (Tween 80) plus PBS) 30 min before intra-articular stimulus with MSU (100 μg/10 μL, i.a.). Six mice with intra-articular injection with PBS alone served as a negative control.
(§2) Induction of MSU-Induced Knee Joint Inflammation. Male ICR (CD-1) mice (35-45 g, 10-12 weeks) were purchased from VitalRiver Inc (Beijing, China) and were kept in an animal care facility under controlled temperature of 21±1° C., humidity, and on a light/dark cycle, with ad libitum access to water and standard laboratory chow diet. Animal care and handling procedures were approved by the Animal Ethics Committee of GZUCM (Guangzhou University of Chinese Medicine). All efforts were made to minimize animal suffering and to reduce the number of animals used. Joint inflammation was induced by the intra-articular (i.a.) administration of MSU (200 μg/20 μl) into the right and left knee joints of mice under inhaled 3% isoflurane anesthesia. Control animals received an injection (i.a.) of sterile PBS (20 μL).
(§3) Cytokine Measurement. Mice were anesthetized and sacrificed. Knee joints were collected and frozen in liquid nitrogen. Samples were then homogenized in 500 μl of buffer containing protease inhibitors, centrifuged (3600 rpm, 4° C., 15 min) and supernatants were used to determine Th1/Th2/Th17 cytokine levels using a multiplex microassay (Qantibody® mouse TH17 Array 1 kit, Cat. No.: QAM-TH17-1; RayBiotech, Norcross, GA). Results were expressed as picograms (pg) of cytokine/mg of tissue.
(§4) Statistical Analysis. […] For in vitro experiments, microassays were performed in quadruplicate. p<0.05 was considered significant (*p<0.05, **p<0.01, ***p<0.001).

[2] = test system: IL-10; experiment: MSU-induced IL-10 in knee joint tissue (multiplex microassay); type: in vivo, mouse; conditions: 2,4-D 100 mg/kg, DEX 0.5 mg/kg
Protocol: as §1, §2, §3, §4

[3] = test system: IL-1ß; experiment: MSU-induced IL-1ß in knee joint tissue (multiplex microassay); type: in vivo, mouse; conditions: 2,4-D 100 mg/kg, CLC 1 mg/kg, DEX 0.5 mg/kg
Protocol: as §1, §2, §3, §4

[4] = test system: SOD1 G93A mice; experiment: SOD1 G93A mouse model of ALS, motor symptoms and neuroscore; type: in vivo; conditions: 50 mg/kg daily oral in gel from 21 days post-natal
Description: Animals. The ALS mouse model is the SOD1 G93A (Gurney et al. Science 1994). Mutations in the SOD1 gene represent about 20% of the mutations in human familiar forms of ALS. Mice with multiple human transgenes with the G93A mutation in the SOD1 gene develop a progressive muscle paralysis and a loss of spinal motor neurons as in human patients. We used the high expressor lines (Jackson Labs #002726 B6SJL-Tg(SOD1*G93A)1 Gur/J) that contains at least 15 copies of the human transgene. SOD1 G93A males are crossed with B6/SJL females (Janvier Labs #SH-B6SJL-F1; hybrid model B6SJLF1/JRj). Genotyping allows us to identify the transgenic animals in the litter.
Symptoms progression is assessed using a neuroscore grid as in Hatzipetros et al. JoVE 2015. Mice are euthanized when they are transitioning from neuroscore 2 to neuroscore 3 (full paralysis of one hindlimb). This transition happens about 120-130 days post-natal in our breeding conditions and in the absence of the 2,4-D treatment. Non transgenic littermates are used as control animals.
Chronic administration of 2,4-D in mice. […] Daily delivery of the drug for a long time period (about 100 days) is not compatible with IP injections for ethics considerations and also because of the infection risk. We then rely on oral administration in a gel using a method modified from Lei Zhang, Star Protocol 2021. Briefly, the gel is produced by mixing alimentary gelatin (8%, Vahiné) in a 2% sucralose solution (Myprotein, zero calory, no flavor) and by heating this mixture at 60° C. for 20-30 minutes until clarification. An artificial flavor, for instance “cheese flavor” (Arôme Alimentaire Emmental 58 ml Cuisineaddict), 2 microliters/milliliter), may be added to this preparation along with some kibble grinds to powder (the same kibble as the one used in the house facility for ordinary diet) for improving palatability. This mixture is then aliquoted in individual daily portions of 315 microliters. 1 to 2 mg of 2,4-D (depending on the mouse body weight, 50 mg of 2,4-D per kg of mouse body weight) is added to each portion while the mixture is still warm (2,4-D is not added in the vehicle portions given to untreated animals). This mixture solidifies in a jelly form upon cooling. The gel can be kept in a fridge (4° C.) for 6 days. We usually have 4 mice (males or females) per cage. To feed the mice with 2,4-D we remove the ordinary kibbles (sometime 4 hours before) and we physically isolated each mouse in a corner of the cage with a plexiglass cross placed in the cage to separate four compartments. One portion jelly is placed at the bottom of each compartment until the mouse has eaten it. In the case the mouse has not eaten the full portion after 3 hours, we evaluate how much was taken by the mouse. […]

[5] = test system: IL-17; experiment: IL-17 gene expression in RA-patient synovial cells (RT-qPCR); type: cell-based, human; conditions: 2 h
Protocol: Synovial fluid was freshly collected from 20 patients with rheumatoid arthritis (RA) by arthrocentesis. At two hours after treatment or not with 2,4-D, RA-patient synovial cells were directly lysed using TRIzol reagent (Invitrogen, USA) followed by RNA extraction according to the manufacturer's protocol. Finally, RNA was dissolved in 10 μL DEPC-treated water, quantified on a NanoDrop 2000 spectrophotometer (Thermo Scientific Inc., USA), and reverse-transcribed using the Super Script III First-Strand Synthesis System for RT-PCR kit (Thermo Scientific, USA) according to the manufacturer's protocol. PCR was performed in duplicate using SYBR Green qPCR master mix (Takara Biomedical Technology Co., Ltd, Dalian, China) on an ABI 7500 Real-Time PCR System (Thermo, USA). The cycling program was as follows: denaturation at 95° C. for 15 s, 40 cycles of 95° C. for 15 s and extension at 60° C. for 60 s, followed by melt curve generation. The ΔΔCT method was used to quantify relative mRNA levels as described in Example 1 above. The primer sequences specific for human IL-17 genes (hu-IL-17 Forward: 5′-[…]-3′; hu-IL-17 Reverse: 5′-GGCACTTTGCCTCCCAGAT-3′) (SEQ ID NOs 8 and 9, respectively) and IL-23 (see Example 1, above) were used.

[6] = Solubility in water; type: physicochemical

For COc1cc(O)c(OC)c(O)c1C(=O)/C=C/c1ccccc1 [2,4-D, 2′,4′-dihydroxy-3′,6′-dimethoxychalcone], the “decrease of TNF-alpha in knee joint tissue” value [1] was 1.9 fold, the “decrease of IL-10 in knee joint tissue” value [2] was 1.7 fold and the “decrease of IL-1ß in knee joint tissue” value [3] was 5.3 fold. For the same molecule, the “neuroscore progression (from 0 to 3)” value [4] was “tends to slow down”, the “time at which neuroscore 3 is reached (survival time)” value [4] was “tends to be delayed” and the “time at which the axial tonus is lost, compared with vehicle” value [4] was “significantly extends”. The “time at which the full hindlimb extension is lost, compared with vehicle” value [4] was “significantly extends”, the “decrease of IL-17 expression” value ([5]; 1 μg/ml) was 23 fold and the “inhibition of IL-17 expression” value ([5]; 5 μg/ml) was 60 fold. The solubility in water [6] was “Low solubility”.
